Results: PubChem BioAssay AID330 (DTP/NCI, 2004)
“And” between values parts separate entries of the source, which are not always exact repeats. Equal values may be shown once. Inconclusive results and toxic doses are left out. Rule for the calls: active = survival T/C of 150% or more; inactive = T/C below 125% in these data.

Test system: P388 leukemia ip, CD2F1 mice, survival T/C
Assay: NCI In Vivo Anticancer Drug Screen. Data for tumor model P388 Leukemia (intraperitoneal) in CD2F1 (CDF1) mice
Settings: endpoint: median survival time, higher = longer survival
Method in brief: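 Mice carrying the transplanted tumor received test compound or vehicle. Survival was recorded in each group, and the value is the treated-group measurement divided by that of the vehicle-treated control group.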

[1] = dose: 50.0 mg/kg/injection, schedule: Q01DX009 (ip), vehicle: saline with Tween-80
[2] = dose: 50.0 mg/kg/injection, schedule: Q01DX005 (ip), vehicle: saline with Tween-80
[3] = dose: 100.0 mg/kg/injection, schedule: Q01DX005 (ip), vehicle: saline with Tween-80
[4] = dose: 12.5 mg/kg/injection, schedule: Q01DX009 (ip), vehicle: saline
[5] = dose: 25.0 mg/kg/injection, schedule: Q01DX009 (ip), vehicle: saline
[6] = dose: 50.0 mg/kg/injection, schedule: Q01DX009 (ip), vehicle: saline

Measured: T/C

Cc1cc2sccc2cn1
inactive: dose: 25.0 mg/kg/injection, schedule: Q01DX009 (ip), vehicle: saline with Tween-80 100 % of control | [1] 100 % of control

CN1CCCC1=NCCN=C1CCCN1C
inactive: dose: 50.0 mg/kg/injection, schedule: Q01DX005 (ip), vehicle: saline 117 % of control | dose: 100.0 mg/kg/injection, schedule: Q01DX005 (ip), vehicle: saline 99 % of control | dose: 200.0 mg/kg/injection, schedule: Q01DX005 (ip), vehicle: saline 98 % of control

N=C(N)c1ccc2cc(C(=N)N)[nH]c2c1
inactive: dose: 6.25 mg/kg/injection, schedule: Q04DX003 (ip), vehicle: saline 100 % of control | dose: 12.5 mg/kg/injection, schedule: Q04DX003 (ip), vehicle: saline 100 % of control | dose: 25.0 mg/kg/injection, schedule: Q04DX003 (ip), vehicle: saline 107 % of control

c1ccc(SCCOCCOCCSc2ccccn2)nc1
inactive: dose: 25.0 mg/kg/injection, schedule: Q01DX005 (ip), vehicle: Klucel (hydroxypropylcellulose) (HPC) 103 % of control | dose: 50.0 mg/kg/injection, schedule: Q01DX005 (ip), vehicle: Klucel (hydroxypropylcellulose) (HPC) 108 % of control | dose: 100.0 mg/kg/injection, schedule: Q01DX005 (ip), vehicle: Klucel (hydroxypropylcellulose) (HPC) 111 % of control

C[n+]1c(-c2ccc(/C=N/NC(=O)c3ccc(C(=O)N/N=C/c4ccc(-c5cn6ccccc6[n+]5C)cc4)c(O)c3O)cc2)cn2ccccc21
inactive: [2] 107 % of control | [3] 96 % of control

CC1CCC(C(C)(C)c2ccccc2)C(OC(=O)C2C3CCC=C3C3CC(C)(C)CC32)C1 (stereo unspecified)
inactive: dose: 21.25 mg/kg/injection, schedule: Q01DX005 (ip), vehicle: saline with Tween-80 99 % of control | dose: 42.5 mg/kg/injection, schedule: Q01DX005 (ip), vehicle: saline with Tween-80 96 % of control | dose: 85.0 mg/kg/injection, schedule: Q01DX005 (ip), vehicle: saline with Tween-80 100 % of control

O=C1C=CC(=O)c2c(O)c3c(c(O)c21)C[C@H](O)[C@H](O)[C@@H]3O
inactive: dose: 1.56 mg/kg/injection, schedule: Q04DX003 (ip), vehicle: water 98 % of control | dose: 3.13 mg/kg/injection, schedule: Q04DX003 (ip), vehicle: water 92 % of control | dose: 6.25 mg/kg/injection, schedule: Q04DX003 (ip), vehicle: water 102 % of control

O=Cc1ccc2c(c1)C(O)NC(=O)O2 (stereo unspecified)
inactive: [2] 100 % of control | [3] 101 % of control

CC12OC(=O)CC1C(c1ccccc1)(c1ccccc1)O2 (stereo unspecified)
inactive: dose: 60.0 mg/kg/injection, schedule: Q01DX005 (ip), vehicle: saline with Tween-80 100 % of control | dose: 120.0 mg/kg/injection, schedule: Q01DX005 (ip), vehicle: saline with Tween-80 94 % of control | dose: 240.0 mg/kg/injection, schedule: Q01DX005 (ip), vehicle: saline with Tween-80 88 % of control

c1ccc2c(c1)C1OC2c2cnccc21 (stereo unspecified)
inactive: dose: 100.0 mg/kg/injection, schedule: Q04DX002 (ip), vehicle: saline with Tween-80 95 % of control | dose: 200.0 mg/kg/injection, schedule: Q04DX002 (ip), vehicle: saline with Tween-80 96 % of control | dose: 400.0 mg/kg/injection, schedule: Q04DX002 (ip), vehicle: saline with Tween-80 93 % of control

O=S1(=O)OC2(c3ccccc31)c1cc(Br)c(O)c(O)c1Oc1c2cc(Br)c(O)c1O
inactive: [4] 105 % of control | [5] 103 % of control | [6] 88 % of control

Cc1cc2nc(CC(=O)c3ccccc3)c(CC(=O)c3ccccc3)nc2cc1C
inactive: dose: 7.5 mg/kg/injection, schedule: Q01DX005 (ip), vehicle: saline with Tween-80 98 % of control | dose: 15.0 mg/kg/injection, schedule: Q01DX005 (ip), vehicle: saline with Tween-80 95 % of control

N#C/C(=C/c1ccc(Cl)cc1)c1ccc(Cl)cc1
inactive: dose: 50.0 mg/kg/injection, schedule: Q01DX009 (ip), vehicle: Klucel (hydroxypropylcellulose) (HPC) 102 % of control | dose: 100.0 mg/kg/injection, schedule: Q01DX009 (ip), vehicle: Klucel (hydroxypropylcellulose) (HPC) 110 % of control | dose: 200.0 mg/kg/injection, schedule: Q01DX009 (ip), vehicle: Klucel (hydroxypropylcellulose) (HPC) 102 % of control

Oc1ccc2ccccc2c1/C=N/c1nc(-c2ccc(Cl)cc2)cs1
inactive: dose: 100.0 mg/kg/injection, schedule: Q01DX001 (ip), vehicle: saline with Tween-80 89 % of control | dose: 200.0 mg/kg/injection, schedule: Q01DX001 (ip), vehicle: saline with Tween-80 90 % of control | dose: 400.0 mg/kg/injection, schedule: Q01DX001 (ip), vehicle: saline with Tween-80 92 % of control

Cc1nsc(N)n1
inactive: dose: 6.25 mg/kg/injection, schedule: Q01DX009 (ip), vehicle: saline 100 % of control | dose: 6.25 mg/kg/injection, schedule: Q01DX009 (ip), vehicle: suspension in saline 94 % of control | [4] 100 % of control and 98 % of control | dose: 12.5 mg/kg/injection, schedule: Q01DX009 (ip), vehicle: suspension in saline 101 % of control | [5] 100 % of control and 98 % of control | dose: 25.0 mg/kg/injection, schedule: Q01DX009 (ip), vehicle: suspension in saline 102 % of control | [6] 99 % of control and 98 % of control | dose: 50.0 mg/kg/injection, schedule: Q01DX009 (ip), vehicle: suspension in saline 103 % of control

N#Cc1ccccc1Cl
inactive: [1] 100 % of control | dose: 100.0 mg/kg/injection, schedule: Q01DX009 (ip), vehicle: saline with Tween-80 101 % of control | dose: 200.0 mg/kg/injection, schedule: Q01DX009 (ip), vehicle: saline with Tween-80 98 % of control

CCN(CC)/C([Se])=N/N=C(\C)c1ccccn1
inactive: dose: 100.0 mg/kg/injection, schedule: Q04DX003 (ip), vehicle: Klucel (hydroxypropylcellulose) (HPC) 108 % of control | dose: 200.0 mg/kg/injection, schedule: Q04DX003 (ip), vehicle: Klucel (hydroxypropylcellulose) (HPC) 102 % of control
